Laboratory results reported in ChEMBL document CHEMBL4152300, “Discovery of the selective and efficacious inhibitors of FLT3 mutations” (Eur J Med Chem, 2018).

Tests used:
[1] = biological target: T1, Vascular endothelial growth factor receptor 3 (Homo sapiens, UniProt P35916); assay: Inhibition of human FLT4 at 0.123 uM by Hotspot assay relative to control
[2] = biological target: Receptor-type tyrosine-protein kinase FLT3 (Homo sapiens, UniProt P36888, F691L/ITD); assay: Binding affinity to human FLT3 ITD/F691L double mutant expressed in bacterial expression system by Kinomescan method
MV4-11 [3] = assay: Induction of apoptosis in human MV4-11 cells assessed as live cells at 0.2 uM after 24 hrs by Annexin V-FITC/propidium iodide staining based flow cytometry (reference value: 100%); type: functional
[4] = biological target: T2, Receptor-type tyrosine-protein kinase FLT3 (Homo sapiens, UniProt P36888); assay: Inhibition of FLT3 phosphorylation at Tyr589/591 residues in human MV4-11 cells after 4 hrs by Western blot analysis; type: cell-based
[5] = biological target: Receptor-type tyrosine-protein kinase FLT3 (Homo sapiens, UniProt P36888, D835V/ITD); assay: Binding affinity to human FLT3 ITD/D835V double mutant expressed in bacterial expression system by Kinomescan method
[6] = biological target: T3, Vascular endothelial growth factor receptor 2 (Homo sapiens, UniProt P35968); assay: Inhibition of human KDR by Hotspot assay
T3 sequence (P35968 whole entry): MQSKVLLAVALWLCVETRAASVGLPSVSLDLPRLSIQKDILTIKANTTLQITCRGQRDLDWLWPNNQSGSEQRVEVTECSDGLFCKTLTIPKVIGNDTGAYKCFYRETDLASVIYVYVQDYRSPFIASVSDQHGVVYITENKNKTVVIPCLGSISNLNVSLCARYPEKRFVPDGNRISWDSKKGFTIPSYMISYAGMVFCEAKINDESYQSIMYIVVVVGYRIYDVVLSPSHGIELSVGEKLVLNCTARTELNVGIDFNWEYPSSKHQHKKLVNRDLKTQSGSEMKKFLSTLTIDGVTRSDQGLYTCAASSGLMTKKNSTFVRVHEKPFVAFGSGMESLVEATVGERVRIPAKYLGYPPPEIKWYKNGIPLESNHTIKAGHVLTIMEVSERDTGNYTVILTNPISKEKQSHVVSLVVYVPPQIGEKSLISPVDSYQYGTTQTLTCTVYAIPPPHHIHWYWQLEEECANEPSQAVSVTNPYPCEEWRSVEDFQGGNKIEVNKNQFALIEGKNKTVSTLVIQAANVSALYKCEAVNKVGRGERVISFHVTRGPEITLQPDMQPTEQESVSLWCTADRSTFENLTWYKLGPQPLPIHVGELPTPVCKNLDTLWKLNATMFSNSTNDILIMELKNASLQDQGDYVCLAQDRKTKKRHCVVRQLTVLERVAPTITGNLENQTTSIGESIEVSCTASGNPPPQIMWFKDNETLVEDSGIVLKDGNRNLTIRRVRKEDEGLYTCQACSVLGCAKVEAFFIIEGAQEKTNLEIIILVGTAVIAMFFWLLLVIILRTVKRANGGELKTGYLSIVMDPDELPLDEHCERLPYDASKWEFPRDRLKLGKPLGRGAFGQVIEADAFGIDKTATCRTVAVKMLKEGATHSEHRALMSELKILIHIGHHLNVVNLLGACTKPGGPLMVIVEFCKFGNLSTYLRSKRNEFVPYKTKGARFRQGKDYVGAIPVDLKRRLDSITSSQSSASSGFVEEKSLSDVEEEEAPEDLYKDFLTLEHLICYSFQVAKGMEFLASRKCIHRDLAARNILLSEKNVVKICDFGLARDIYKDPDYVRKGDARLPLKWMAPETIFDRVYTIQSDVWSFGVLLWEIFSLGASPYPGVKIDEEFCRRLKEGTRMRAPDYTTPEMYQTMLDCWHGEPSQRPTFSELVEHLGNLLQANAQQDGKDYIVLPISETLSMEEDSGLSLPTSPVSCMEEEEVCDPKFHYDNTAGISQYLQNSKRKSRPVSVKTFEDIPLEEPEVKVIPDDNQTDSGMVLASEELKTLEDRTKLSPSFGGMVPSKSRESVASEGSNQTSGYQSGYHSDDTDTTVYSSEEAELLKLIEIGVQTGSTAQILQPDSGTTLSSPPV

MV4-11 [7] = assay: Induction of apoptosis in human MV4-11 cells assessed as late apoptotic cells at 0.2 uM after 24 hrs by Annexin V-FITC/propidium iodide staining based flow cytometry (reference value: 0%); type: functional
[8] = biological target: T2, Receptor-type tyrosine-protein kinase FLT3; assay: Inhibition of human FLT3 Y591-V592 mutant by Hotspot assay
MV4-11 [9] = assay: Induction of apoptosis in human MV4-11 cells assessed as late apoptotic cells at 0.5 uM after 24 hrs by Annexin V-FITC/propidium iodide staining based flow cytometry (reference value: 0%); type: functional
[10] = biological target: T2, Receptor-type tyrosine-protein kinase FLT3; assay: Inhibition of human FLT3 R595_E596 mutant by Hotspot assay
[11] = biological target: T3, Vascular endothelial growth factor receptor 2; assay: Inhibition of human KDR at 0.123 uM by Hotspot assay relative to control
MOLM-13 = assay: Growth inhibition of human MOLM13 cells harboring FLT3-ITD after 72 hrs by Cell-Titer Glo assay; type: functional, cell-based; conditions: MOLM-13, 72 h
[12] = biological target: T2, Receptor-type tyrosine-protein kinase FLT3; assay: Inhibition of human FLT3 F594_R595insR mutant by Hotspot assay
[13] = biological target: Mast/stem cell growth factor receptor Kit (Homo sapiens, UniProt P10721); assay: Inhibition of human KIT at 0.123 uM by Hotspot assay
[14] = biological target: T2, Receptor-type tyrosine-protein kinase FLT3; assay: Inhibition of FLT3 in human MV4-11 cells assessed as reduction in STAT5 phosphorylation at Tyr694 residue after 4 hrs by Western blot analysis; type: cell-based
[15] = biological target: T4, Receptor-type tyrosine-protein kinase FLT3 (Homo sapiens, UniProt P36888, D835Y); assay: Inhibition of human FLT3 D835Y mutant by Hotspot assay
[16] = biological target: Cyclin-dependent kinase 6 (Homo sapiens, UniProt Q00534); assay: Inhibition of CDK6 (unknown origin) assessed as residual activity at 0.123 uM by Hotspot assay relative to control
Cyclin-dependent kinase 6, sequence (Q00534 whole entry): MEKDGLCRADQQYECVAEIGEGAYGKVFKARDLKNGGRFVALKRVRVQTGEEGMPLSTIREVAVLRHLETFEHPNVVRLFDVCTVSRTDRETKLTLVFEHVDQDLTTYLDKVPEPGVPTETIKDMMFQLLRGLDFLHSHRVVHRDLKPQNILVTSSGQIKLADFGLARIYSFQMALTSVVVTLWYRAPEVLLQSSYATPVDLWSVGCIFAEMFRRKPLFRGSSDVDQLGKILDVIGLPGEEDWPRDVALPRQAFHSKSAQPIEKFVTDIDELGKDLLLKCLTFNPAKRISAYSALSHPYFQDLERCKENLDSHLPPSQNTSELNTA

MV4-11 [17] = assay: Induction of apoptosis in human MV4-11 cells assessed as necrotic cells at 0.5 uM after 24 hrs by Annexin V-FITC/propidium iodide staining based flow cytometry (reference value: 0%); type: functional
MV4-11 [18] = assay: Induction of apoptosis in human MV4-11 cells assessed as necrotic cells at 0.2 uM after 24 hrs by Annexin V-FITC/propidium iodide staining based flow cytometry (reference value: 0%); type: functional
MV4-11 [19] = assay: Induction of apoptosis in human MV4-11 cells after 24 hrs by Annexin V-FITC/propidium iodide staining based flow cytometry; type: functional, cell-based
[20] = biological target: T4, Receptor-type tyrosine-protein kinase FLT3; assay: Binding affinity to human FLT3 D835Y mutant (Q580 to Y969 residues) expressed in bacterial expression system by Kinomescan method
MV4-11 [21] = assay: Induction of apoptosis in human MV4-11 cells assessed as early apoptotic cells at 0.2 uM after 24 hrs by Annexin V-FITC/propidium iodide staining based flow cytometry (reference value: 0%); type: functional
[22] = biological target: T5, Vascular endothelial growth factor receptor 1 (Homo sapiens, UniProt P17948); assay: Inhibition of human FLT1 at 0.123 uM by Hotspot assay relative to control
T5 sequence (P17948 whole entry): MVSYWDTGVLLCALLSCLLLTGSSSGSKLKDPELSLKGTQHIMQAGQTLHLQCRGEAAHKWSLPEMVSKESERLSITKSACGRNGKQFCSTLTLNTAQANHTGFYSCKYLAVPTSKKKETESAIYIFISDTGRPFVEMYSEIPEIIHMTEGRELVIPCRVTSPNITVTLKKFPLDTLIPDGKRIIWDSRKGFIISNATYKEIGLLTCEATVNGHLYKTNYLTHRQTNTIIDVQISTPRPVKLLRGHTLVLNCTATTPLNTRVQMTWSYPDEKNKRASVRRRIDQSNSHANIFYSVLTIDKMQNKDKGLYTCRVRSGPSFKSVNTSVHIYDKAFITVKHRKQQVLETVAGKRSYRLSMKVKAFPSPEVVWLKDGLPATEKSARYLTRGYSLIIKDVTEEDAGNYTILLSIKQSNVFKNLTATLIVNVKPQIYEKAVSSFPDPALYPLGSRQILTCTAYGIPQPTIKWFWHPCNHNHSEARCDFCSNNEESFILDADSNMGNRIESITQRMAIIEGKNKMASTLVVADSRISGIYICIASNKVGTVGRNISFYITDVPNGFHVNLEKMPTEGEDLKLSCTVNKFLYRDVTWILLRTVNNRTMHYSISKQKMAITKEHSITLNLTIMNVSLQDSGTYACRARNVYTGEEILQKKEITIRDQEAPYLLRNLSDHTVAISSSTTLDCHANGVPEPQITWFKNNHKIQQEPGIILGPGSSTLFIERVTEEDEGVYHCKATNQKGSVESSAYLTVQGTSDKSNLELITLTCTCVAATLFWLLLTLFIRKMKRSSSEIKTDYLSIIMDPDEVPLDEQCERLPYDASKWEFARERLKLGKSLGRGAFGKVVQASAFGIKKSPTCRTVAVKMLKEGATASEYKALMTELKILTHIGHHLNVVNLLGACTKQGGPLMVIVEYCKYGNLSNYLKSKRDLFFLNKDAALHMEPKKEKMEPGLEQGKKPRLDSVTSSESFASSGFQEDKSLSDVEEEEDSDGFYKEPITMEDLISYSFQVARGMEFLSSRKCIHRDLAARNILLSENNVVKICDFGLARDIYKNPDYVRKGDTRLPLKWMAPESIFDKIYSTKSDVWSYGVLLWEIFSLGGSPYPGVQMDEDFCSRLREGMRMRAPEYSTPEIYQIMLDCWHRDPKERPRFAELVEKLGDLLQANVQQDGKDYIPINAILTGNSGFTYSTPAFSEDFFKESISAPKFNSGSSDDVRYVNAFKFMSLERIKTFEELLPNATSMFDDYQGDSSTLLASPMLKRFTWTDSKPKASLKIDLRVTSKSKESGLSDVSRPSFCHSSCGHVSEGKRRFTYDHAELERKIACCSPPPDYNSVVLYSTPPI

[23] = Drug uptake in human liver microsomes up to 60 mins by LC-MS/MS analysis; type: ADME, microsome; conditions: 1 h
MV4-11 [24] = assay: Growth inhibition of human MV4-11 cells harboring FLT3-ITD after 72 hrs by Cell-Titer Glo assay; type: functional, cell-based; conditions: MV4-11, 72 h
[25] = biological target: T1, Vascular endothelial growth factor receptor 3; assay: Inhibition of human FLT4 by Hotspot assay
[26] = biological target: T5, Vascular endothelial growth factor receptor 1; assay: Inhibition of human FLT1 by Hotspot assay
K562 = assay: Growth inhibition of FLT3 null human K562 cells after 72 hrs by Cell-Titer Glo assay; type: functional, cell-based; conditions: K562, 72 h
[27] = biological target: T2, Receptor-type tyrosine-protein kinase FLT3; assay: Inhibition of FLT3 in human MV4-11 cells assessed as reduction in AKT phosphorylation at Ser473 residue after 4 hrs by Western blot analysis; type: cell-based
[28] = biological target: T2, Receptor-type tyrosine-protein kinase FLT3; assay: Inhibition of FLT3 in human MV4-11 cells assessed as reduction in ERK1/2 phosphorylation at Thr202/Tyr204 residues after 4 hrs by Western blot analysis; type: cell-based

T1 sequence (P35916 whole entry): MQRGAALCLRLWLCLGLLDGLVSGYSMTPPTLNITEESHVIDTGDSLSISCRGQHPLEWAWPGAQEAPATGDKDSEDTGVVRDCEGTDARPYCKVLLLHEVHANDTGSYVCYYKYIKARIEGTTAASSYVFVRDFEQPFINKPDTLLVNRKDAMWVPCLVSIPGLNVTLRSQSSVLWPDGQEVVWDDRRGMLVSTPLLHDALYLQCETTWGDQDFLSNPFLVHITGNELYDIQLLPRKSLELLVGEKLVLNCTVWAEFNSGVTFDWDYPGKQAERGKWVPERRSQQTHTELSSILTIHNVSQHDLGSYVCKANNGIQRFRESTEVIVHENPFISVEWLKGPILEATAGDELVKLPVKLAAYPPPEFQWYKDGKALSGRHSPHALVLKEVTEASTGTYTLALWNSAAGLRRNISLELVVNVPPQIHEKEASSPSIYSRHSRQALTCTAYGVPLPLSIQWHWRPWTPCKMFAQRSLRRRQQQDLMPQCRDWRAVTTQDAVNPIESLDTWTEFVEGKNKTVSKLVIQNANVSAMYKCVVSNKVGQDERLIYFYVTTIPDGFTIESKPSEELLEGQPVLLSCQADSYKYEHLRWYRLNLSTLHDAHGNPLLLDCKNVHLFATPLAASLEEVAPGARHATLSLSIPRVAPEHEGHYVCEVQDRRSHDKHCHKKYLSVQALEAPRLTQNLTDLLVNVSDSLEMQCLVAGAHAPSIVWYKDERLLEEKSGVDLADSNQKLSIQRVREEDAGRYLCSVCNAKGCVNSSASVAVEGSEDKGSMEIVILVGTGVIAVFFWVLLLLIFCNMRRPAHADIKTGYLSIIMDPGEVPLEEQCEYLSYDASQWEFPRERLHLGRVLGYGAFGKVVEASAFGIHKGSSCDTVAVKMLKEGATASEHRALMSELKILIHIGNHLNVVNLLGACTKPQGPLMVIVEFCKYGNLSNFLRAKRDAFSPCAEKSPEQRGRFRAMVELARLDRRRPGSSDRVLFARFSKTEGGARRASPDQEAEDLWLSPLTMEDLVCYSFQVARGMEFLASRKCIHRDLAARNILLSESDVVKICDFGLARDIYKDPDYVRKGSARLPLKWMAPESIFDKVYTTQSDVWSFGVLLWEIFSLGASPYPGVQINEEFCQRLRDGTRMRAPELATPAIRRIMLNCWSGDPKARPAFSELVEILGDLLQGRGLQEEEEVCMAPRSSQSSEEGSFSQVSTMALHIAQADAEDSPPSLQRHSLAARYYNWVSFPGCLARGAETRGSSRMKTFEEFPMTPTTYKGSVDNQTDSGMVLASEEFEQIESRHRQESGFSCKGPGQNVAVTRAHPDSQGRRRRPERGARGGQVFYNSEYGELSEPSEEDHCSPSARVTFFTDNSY

## Cc1nc2c(c(Nc3c[nH]nc3C(=O)Nc3ccc(N4CCNCC4)cc3)n1)CCC2
[1]
  inhibition: > 50%
[2]
  Kd: 13.1 nM
MV4-11 [3]
  Activity: 62.2%
[4]
  inhibition: Dose-dependent effect
[5]
  Kd: 3.7 nM
[6]
  IC50: 94.6 nM
MV4-11 [7]
  Activity: 12.8%
[8]
  IC50: 15.3 nM
MV4-11 [9]
  Activity: 9.77%
[10]
  IC50: 8.74 nM
[11]
  inhibition: > 50%
MOLM-13
  IC50: 37 nM
[12]
  IC50: 6.97 nM
[13]
  inhibition (INH): Not Active
[14]
  inhibition: Dose-dependent effect
[15]
  IC50: 1.79 nM
[16]
  Activity: 91.2%
MV4-11 [17]
  Activity: 0.83%
MV4-11 [18]
  Activity: 1.92%
MV4-11 [19]
  Activity: Dose-dependent effect
[20]
  Kd: 5.33 nM
MV4-11 [21]
  Activity: 23%
[22]
  inhibition: > 50%
[23]
  Drug uptake: 28.7%
MV4-11 [24]
  IC50: 16 nM
[25]
  IC50: 23 nM
[26]
  IC50: 220 nM
K562
  IC50: 11600 nM
[27]
  inhibition: Dose-dependent effect
[28]
  inhibition: Dose-dependent effect
